Results published in US8048868B1, “Method of preventing preeclampsia” (Scott & White Healthcare, priority 2008, dated 2011).

How the values were obtained:
[1] = tested on: pregnant DOCA+saline (PDS) rats; experiment: Rat model of preeclampsia (pregnant DOCA+saline rats), RBG given daily from day 4 of pregnancy; format: in vivo, Sprague-Dawley rats
Excerpt: In an attempt to reproduce this situation, a rat model was developed and employed in which pregnant animals are given weekly injections of the powerful mineralocorticoid desoxycorticosterone acetate (DOCA) and whose drinking water is replaced with saline Ianosi-Irimie M, Vu H V, Whitbred J M, et al. A rat model of preeclampsia. Clin Exp Hypertens 2005; 8:605-17. These animals develop characteristic findings of human preeclampsia including hypertension, proteinuria, excessive body weight gain and IUGR. In addition, associated with their experimental condition, they excrete increased amounts of the bufodienolide, marinobufagenin (MBG) Vu H V, Ianosi-Irimie M R, Pridjian C A, et al. Involvement of marinobufagenin in a rat model of human preeclampsia. Am J NephroI 2005; 25:520-8. MBG is a cardiotonic steroid which has vasoconstrictor, natriuretic and cardiac inotropic properties Schoner W. Endogenous cardiac glycosides, a new class of steroid hormones. Eur J Biochem 2002; 269:2440-8. Furthermore, the increased urinary excretion of this compound precedes the development of hypertension and proteinuria Vu H V, Ianosi-Irimie M R, Pridjian C A, et al. Involvement of marinobufagenin in a rat model of human preeclampsia. Am J NephroI 2005; 25:520-8. […] Therefore, the purpose of the study which is presented in this communication was to determine if intervention early in pregnancy would have more beneficial effects on IUGR than the administration of RBG at a time when the rodent disorder was already established.
Female Sprague-Dawley rats (200-250 g) were obtained from Charles River Laboratories (Wilmington, Mass.) and housed in the animal facility. They were allowed free access to standard rat chow and tap water. Animal care was conducted in accordance with institutional guidelines. The rats were acclimatized for 1 week prior to being studied. The animals were mated with male Sprague-Dawley rats (Charles River Laboratories, Wilmington, Mass.) weighing 275-300 g. Pregnancy was confirmed by the presence of vaginal plugs or by examination of vaginal smears. The pregnant females were then isolated from the males. Four groups of animals were studied: normal pregnant (NP) rats given tap water ad libitum (n=10), pregnant DOCA+saline (PDS) animals (n=8) injected initially with 12.5 mg of DOCA in a depot form intraperitoneally followed by 6.5 mg on a weekly basis and whose drinking water was replaced with 0.9% saline; normal pregnant rats given RBG by daily injection in a dose of 30 micrograms per kilogram body weight per day intraperitoneally beginning on day 4 of pregnancy (NPR rats, n=5); and, pregnant DOCA+saline+RBG (PDSR) animals (n=8) given daily injections of RBG in a dose of 30 micrograms per kilogram body weight per day intraperitoneally beginning on day 4 of pregnancy in addition to treatment with DOCA+saline. RBG was obtained from ChromaDex (Santa Ana, Calif.) and dissolved in dimethyl sulfoxide (DMSO). Systolic blood pressure (BP) was measured by the tail-cuff method (IITC Inc., LifeScience Instruments, model 59). For each BP value reported, 3-4 readings were performed when the BP had stabilized and the mean of these values was calculated. The measurements were obtained at the following time points: prior to pregnancy (baseline), at 1-4 days, 4-7 days, 6-9 days, 8-11 days, 11-14 days, 13-16 days, 15-18 days and 18-21 days of pregnancy. At 18-21 days of pregnancy, 24-hr urine was collected in the absence of food (this was done to eliminate contamination of the urinary protein determination by any fallen food particles). Each animal was housed separately in a metabolic cage. The rats were sacrificed at 18-21 days of pregnancy and blood was drawn. The pups were counted and inspected for malformations. The 24-hr protein excretion was measured using the pyrogallol red method (Total protein Kit, Micro Pyrogallol Red Method, Sigma). […]

normal pregnant rats = experiment: Normal pregnant rats given RBG daily from day 4 of pregnancy (NPR); format: in vivo, Sprague-Dawley rats
Experimental: Female Sprague-Dawley rats (200-250 g) were obtained from Charles River Laboratories (Wilmington, Mass.) and housed in the animal facility. They were allowed free access to standard rat chow and tap water. Animal care was conducted in accordance with institutional guidelines. The rats were acclimatized for 1 week prior to being studied. The animals were mated with male Sprague-Dawley rats (Charles River Laboratories, Wilmington, Mass.) weighing 275-300 g. Pregnancy was confirmed by the presence of vaginal plugs or by examination of vaginal smears. The pregnant females were then isolated from the males. Four groups of animals were studied: normal pregnant (NP) rats given tap water ad libitum (n=10), pregnant DOCA+saline (PDS) animals (n=8) injected initially with 12.5 mg of DOCA in a depot form intraperitoneally followed by 6.5 mg on a weekly basis and whose drinking water was replaced with 0.9% saline; […] (NPR rats, n=5); and, pregnant DOCA+saline+RBG (PDSR) animals (n=8) given daily injections of RBG in a dose of 30 micrograms per kilogram body weight per day intraperitoneally beginning on day 4 of pregnancy in addition to treatment with DOCA+saline. RBG was obtained from ChromaDex (Santa Ana, Calif.) and dissolved in dimethyl sulfoxide (DMSO). Systolic blood pressure (BP) was measured by the tail-cuff method (IITC Inc., LifeScience Instruments, model 59). For each BP value reported, 3-4 readings were performed when the BP had stabilized and the mean of these values was calculated. The measurements were obtained at the following time points: prior to pregnancy (baseline), at 1-4 days, 4-7 days, 6-9 days, 8-11 days, 11-14 days, 13-16 days, 15-18 days and 18-21 days of pregnancy. At 18-21 days of pregnancy, 24-hr urine was collected in the absence of food (this was done to eliminate contamination of the urinary protein determination by any fallen food particles). Each animal was housed separately in a metabolic cage. The rats were sacrificed at 18-21 days of pregnancy and blood was drawn. The pups were counted and inspected for malformations. The 24-hr protein excretion was measured using the pyrogallol red method (Total protein Kit, Micro Pyrogallol Red Method, Sigma).
Creatinine was measured in the blood and urine on a Nova 16 Analyzer (Waltham, Mass.) and the creatinine clearance was calculated. Hematocrit was measured using a StatSpin MP Multipurpose Centrifuge (Norwood, Mass.). Statistics were performed using analysis of variance (ANOVA) and Tukey's post-hoc test.
Blood pressure results for four groups of experimental animals obtained at various time periods during gestation: NP=normal pregnant rats; PDS=pregnant animals given saline in their drinking water and injected weekly with DOCA; PDSR=rats in whom resibufogenin 30 μg/kg/day) was injected at the onset of pregnancy along with DOCA and the provision of saline as drinking water; NPR=normal pregnant animals injected daily with resibufogenin 30 μg/kg/day. See text for statistical analyses.

[2] = tested on: pregnant DOCA+saline (PDS) rats; experiment: Rat model of preeclampsia (pregnant DOCA+saline rats), RBG given daily from day 4 of pregnancy; format: in vivo, Sprague-Dawley rats; conditions: RBG 15 μg/kg/min daily given to PDS rats (data not shown)
[3] = tested on: "preeclamptic (PDS)" rats; conditions: RBG given when the disorder was established (Vu et al. 2006); cited from earlier work
[4] = PDSR rats, RBG 30 micrograms/kg/day i.p., 18-21 days
[5] = NPR rats, RBG 30 micrograms/kg/day i.p., 18-21 days

In the case of `C[C@]12CC[C@H](O)C[C@H]1CC[C@@H]1[C@@H]2CC[C@]2(C)[C@@H](c3ccc(=O)oc3)C[C@H]3O[C@]132` [RBG, resibufogenin], the “Mean systolic blood pressure (tail-cuff), baseline” value ([1]; PDSR rats (n=8), prior to pregnancy (baseline)) is reported as 105±5 mmHg, the “CCR (creatinine clearance)” value [1, 4] is reported as 1.07 ± 0.29 mL/min and the Hematocrit [1, 4] is reported as 0.33±0.02. For the same compound, the “Protein Excretion (24-hr urine)” value [1, 4] was 2.5±1.1 mg/24 hr, the “Pups (average number of pups)” value ([1]; PDSR rats, RBG 30 micrograms/kg/day i.p., sacrifice at 18-21 days) was 14.6±1.3 and the “Mean systolic blood pressure (tail-cuff), final” value ([1]; PDSR rats: DOCA+saline + RBG 30 micrograms/kg/day i.p. from day 4, 18-21 days of pregnancy) was 87±6 mmHg. The “Prevention of hypertension, proteinuria and intrauterine growth restriction (summary)” value ([1]; early administration in gestation) was “prevent hypertension, proteinuria and intrauterine growth restriction”, the “Mean systolic blood pressure (tail-cuff), baseline” value (normal pregnant rats; NPR rats (n=5), prior to pregnancy (baseline)) was 104±5 mmHg and the “CCR (creatinine clearance)” value (normal pregnant rats; [5]) was 1.20 ± 0.49 mL/min. For the same compound, the Hematocrit (normal pregnant rats; [5]) was 0.38±0.01, the “Protein Excretion (24-hr urine)” value (normal pregnant rats; [5]) was 4.6±0.8 mg/24 hr and the “Pups (average number of pups)” value (normal pregnant rats; NPR rats, RBG 30 micrograms/kg/day i.p., sacrifice at 18-21 days) was 11.8±1.6. For the same compound, the “Mean systolic blood pressure (tail-cuff), final” value (normal pregnant rats; NPR rats: RBG 30 micrograms/kg/day i.p. from day 4, 18-21 days of pregnancy) was 125±6 mmHg, the “Effect on blood pressure at lower dose” value (normal pregnant rats; RBG 15 μg/kg/min daily, animal group not clearly stated (data not shown)) was “did increase blood pressure” and the “Agonist effect on blood pressure” value (normal pregnant rats; given alone to normal pregnant animals) was “causes modest hypertension”. For the same compound, the “Prevention of hypertension at lower dose” value [2] was “failed to prevent hypertension”, the Hypertension and proteinuria [3] was “could be corrected” and the IUGR [3] was “trend toward improvement”.
